A word on the EC50: it is the concentration needed to bring the measured effect to its halfway point. A word on the Ki: it is the dissociation constant of the complex between target and ligand, obtained from inhibition or displacement.

Molecules are shown by their SMILES.

Assay [1] deals with T1, Mu-type opioid receptor (Homo sapiens, UniProt P35372). The assay is described as follows: Stimulation of [35S]GTP-gamma-S, binding to recombinant human Opioid receptor mu 1 expressed in CHO cells. In kind it is functional, cell-based. Background: Binding of GTPγS marks nucleotide exchange on a G protein.
Assay [2] concerns the target T2, Delta-type opioid receptor (Homo sapiens, UniProt P41143). The assay is described as follows: Displacement of [3H]C1-DPDPE from human recombinant Opioid receptor delta 1 on CHO cell membranes. In kind it is cell-based. (In general: Displacement assays read how much labelled ligand stays bound in the presence of the test substance.)
Assay [3] concerns the target T2, Delta-type opioid receptor. Briefly: Stimulation of [35S]GTP-gamma-S, binding at human recombinant Opioid receptor delta 1 transfected into CHO cells. In kind it is functional, cell-based.
Assay [4] deals with T1, Mu-type opioid receptor. Briefly: Percent stimulation of [35S]GTP-gamma-S, binding in recombinant human Opioid receptor mu 1 transfected into CHO cells. In kind it is functional, cell-based.
The target of assay [5] is T2, Delta-type opioid receptor. The assay is described as follows: Percent stimulation of [35S]GTP-gamma-S, binding to recombinant human Opioid receptor delta 1 expressed in CHO cells. Format: functional, cell-based.
The target in assay [6] is T1, Mu-type opioid receptor. The assay is described as follows: Displacement of [3H]DAMGO from human recombinant Opioid receptor mu 1 on CHO cell membranes. In kind it is cell-based.
Assay [7] has as its target T3, Kappa-type opioid receptor (Homo sapiens, UniProt P41145). Briefly: Percent stimulation of […] binding in recombinant human Opioid receptor kappa 1 transfected into CHO cells: Antagonist activity. Format: cell-based. Particulars: filed as antagonist.
In assay [8] the target is T3, Kappa-type opioid receptor. The assay is described as follows: Displacement of [3H]U-69593 from human recombinant Opioid receptor kappa 1 on CHO cell membranes. Format: cell-based.
The target of assay [9] is Opioid receptors; delta & kappa (Homo sapiens) (UniProt P41145+P41143). The assay is described as follows: Selectivity between kappa opioid receptor and delta opioid receptor. Format: functional.
Assay [10] has as its target Opioid receptors; mu & delta (Homo sapiens) (UniProt P41143+P35372). The assay is described as follows: Selectivity between mu opioid receptor and delta opioid receptor. In kind it is functional.
Assay [11] deals with T3, Kappa-type opioid receptor. Briefly: Percent stimulation of [35S]GTP-gamma-S, binding in recombinant human Opioid receptor kappa 1 transfected into CHO cells: Antagonist activity. In kind it is functional, cell-based. The note with it: filed as antagonist.
Assay [12] deals with T3, Kappa-type opioid receptor. Briefly: Stimulation of […] binding at human recombinant Opioid receptor kappa 1 transfected into CHO cells. In kind it is cell-based.
The target in assay [13] is T1, Mu-type opioid receptor. Briefly: Percent stimulation of [35S]GTP-gamma-S, binding in recombinant human mu opioid receptor transfected into CHO cells. In kind it is functional, cell-based.
Assay [14] concerns the target T3, Kappa-type opioid receptor. Briefly: Percent stimulation of [35S]GTP-gamma-S, binding in recombinant human Opioid receptor kappa 1 transfected into CHO cells. Format: functional, cell-based.

T3 sequence (P41145 whole entry): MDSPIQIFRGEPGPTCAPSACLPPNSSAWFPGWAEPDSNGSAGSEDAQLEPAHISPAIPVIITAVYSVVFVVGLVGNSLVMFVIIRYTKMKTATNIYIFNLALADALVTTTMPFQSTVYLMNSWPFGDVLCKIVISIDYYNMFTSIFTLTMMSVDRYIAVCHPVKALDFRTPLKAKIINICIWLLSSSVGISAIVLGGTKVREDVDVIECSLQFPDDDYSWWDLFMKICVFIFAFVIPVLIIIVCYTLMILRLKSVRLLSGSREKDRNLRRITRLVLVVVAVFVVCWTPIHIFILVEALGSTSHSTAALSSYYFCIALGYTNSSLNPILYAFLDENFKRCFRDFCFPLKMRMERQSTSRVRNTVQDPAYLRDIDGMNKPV
Opioid receptors; delta & kappa (Homo sapiens), sequence (P41143 whole entry, looked up): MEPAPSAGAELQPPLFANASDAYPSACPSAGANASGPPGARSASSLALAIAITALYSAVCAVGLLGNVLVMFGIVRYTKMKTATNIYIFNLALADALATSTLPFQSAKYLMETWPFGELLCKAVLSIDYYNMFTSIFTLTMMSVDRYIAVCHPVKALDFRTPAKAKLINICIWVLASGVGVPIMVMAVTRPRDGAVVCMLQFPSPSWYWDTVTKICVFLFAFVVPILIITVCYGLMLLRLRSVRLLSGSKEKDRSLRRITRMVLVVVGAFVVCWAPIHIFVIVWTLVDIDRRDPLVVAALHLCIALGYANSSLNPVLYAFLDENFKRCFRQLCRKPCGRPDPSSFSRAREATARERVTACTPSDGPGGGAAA
Opioid receptors; delta & kappa (Homo sapiens), sequence (P41145 whole entry, looked up): as the sequence (P41145 whole entry) above
T2 sequence (P41143 whole entry): as the sequence (P41143 whole entry, looked up) above
Opioid receptors; mu & delta (Homo sapiens), sequence (P35372 whole entry, looked up): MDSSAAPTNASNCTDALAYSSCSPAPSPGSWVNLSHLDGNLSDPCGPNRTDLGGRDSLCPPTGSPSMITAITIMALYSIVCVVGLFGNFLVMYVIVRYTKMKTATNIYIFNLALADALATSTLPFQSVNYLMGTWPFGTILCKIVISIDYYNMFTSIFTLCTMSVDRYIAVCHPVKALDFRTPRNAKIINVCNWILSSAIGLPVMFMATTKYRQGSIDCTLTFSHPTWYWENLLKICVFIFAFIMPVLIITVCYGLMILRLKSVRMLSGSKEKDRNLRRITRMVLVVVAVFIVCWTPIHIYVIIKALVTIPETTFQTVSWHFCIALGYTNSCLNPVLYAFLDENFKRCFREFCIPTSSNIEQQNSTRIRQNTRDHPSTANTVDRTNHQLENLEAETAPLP
Opioid receptors; mu & delta (Homo sapiens), sequence (P41143 whole entry, looked up): as the sequence (P41143 whole entry, looked up) above
T1 sequence (P35372 whole entry): as the sequence (P35372 whole entry, looked up) above

For `CCN[C@@]12Cc3c([nH]c4ccccc34)[C@@H]3Oc4c(O)ccc5c4[C@@]31CCN(C)C2C5`, the EC50 on Mu-type opioid receptor [1] worked out at 184 nM; in assay [3], 0.33 nM. Further, the Ki was 0.73 nM in [2], 76.3 nM on Mu-type opioid receptor [6] and 63.8 nM in [8]. For the same compound, the Stimulation at Mu-type opioid receptor [4] was 50%; in assay [5] it was 43%. In assay [7], the Activity result is “Antagonist”. Moreover, the Selectivity is 87 in assay [9] and 105 in assay [10].

In the case of `CCCCC(=O)N[C@@]12Cc3c([nH]c4ccccc34)[C@@H]3Oc4c(O)ccc5c4[C@@]31CCN(C)C2C5`, the 50% effective concentration (EC50) stood at 149 nM on Mu-type opioid receptor [1], 3.3 nM in assay [3] and 56.9 nM in [12]. In addition, the Ki in assay [2] amounted to 2.07 nM; on Mu-type opioid receptor [6], 51.1 nM; in assay [8], 723 nM. For the same compound, the Activity was 31% on Mu-type opioid receptor [4] and “Antagonist” in assay [11]. Also, the Stimulation in assay [5] was 74%. The Selectivity in assay [9] came out at 349; in assay [10], 25.

`CCCCCCC(=O)N[C@@]12Cc3c([nH]c4ccccc34)[C@@H]3Oc4c(O)ccc5c4[C@@]31CCN(C)C2C5`: the 50% effective concentration (EC50) at Mu-type opioid receptor [1] was found to be 51.4 nM; in assay [3], 19 nM. Besides, the Ki turned out to be 10.3 nM in assay [2], 33.4 nM at Mu-type opioid receptor [6] and 409 nM in [8]. Besides, the Stimulation on Mu-type opioid receptor [13] came to 44%; in assay [5], 55%. Also, the Activity result in [11] was “Antagonist”. The values for the Selectivity in assay [9] and in assay [10] were 40 and 3.2, respectively.

For `CN1CC[C@]23c4c5ccc(O)c4O[C@H]2c2[nH]c4ccccc4c2C[C@@]3(NC(=O)CCc2ccccc2)C1C5`, the concentration giving a half-maximal response (EC50) at Mu-type opioid receptor [1] stood at 5.2 nM; in assay [3], 1.4 nM. The Ki in assay [2] is 4.23 nM; on Mu-type opioid receptor [6] it was 9.61 nM; in assay [8], 24.5 nM. In addition, the Stimulation was found to be 27% at Mu-type opioid receptor [4] and 72% in assay [5]. For the same compound, the Activity result in [11] is “Antagonist”. In addition, the Selectivity worked out at 5.8 in assay [9] and 2.3 in assay [10].

Turning to `CN1CC[C@]23c4c5ccc(O)c4O[C@H]2c2[nH]c4ccccc4c2C[C@@]3(O)[C@H]1C5` [OXYMORPHINDOLE], the Ki stood at 1.28 nM in [2], 363 nM on Mu-type opioid receptor [6] and 396 nM in [8]. The Selectivity in assay [9] was found to be 309; in [10], 284.

For the compound `Oc1ccc2c3c1O[C@H]1c4[nH]c5ccccc5c4C[C@@]4(O)[C@@H](C2)N(CC2CC2)CC[C@]314`, the Activity result in assay [11] is “Antagonist”.

With `Oc1ccc2c3c1O[C@H]1c4[nH]c5c(c4C[C@@]4(O)[C@@H](C2)N(CC2CC2)CC[C@]314)C[C@@]1(O)[C@H]2Cc3ccc(O)c4c3[C@@]1(CCN2CC1CC1)[C@H]5O4`, in assay [11], the Activity result is “Antagonist”.

In the case of `CCCCN[C@@]12Cc3c([nH]c4ccccc34)[C@@H]3Oc4c(O)ccc5c4[C@@]31CCN(C)C2C5`, the results for the Stimulation (in assay [14]; on Mu-type opioid receptor [4]; in [5]) were 33%, 40% and 36%, respectively. Moreover, the EC50 on Mu-type opioid receptor [1] was found to be 272 nM; in [3], 4.71 nM; in [12], 936 nM. In addition, the inhibition constant (Ki) in assay [2] was determined as 1.39 nM; on Mu-type opioid receptor [6], 37.2 nM; in [8], 36.1 nM. In addition, the Selectivity stood at 26 in assay [9] and 27 in [10].

On to `CN1CC[C@]23c4c5ccc(O)c4O[C@H]2c2[nH]c4ccccc4c2C[C@@]3(NC(=O)Cc2ccccc2)C1C5`, for which the Stimulation is 36% in assay [14], 53% on Mu-type opioid receptor [4] and 89% in [5]. Further, the EC50 at Mu-type opioid receptor [1] worked out at 95 nM; in [3], 1.2 nM; in [12] it was 96.2 nM. In addition, the figures for the Ki (in assay [2]; at Mu-type opioid receptor [6]; in assay [8]) were 6.55 nM, 29.3 nM and 148 nM, respectively. Besides, the Selectivity in assay [9] amounted to 23; in [10], 4.5.

As to `C[C@@H](NC(=O)[C@@H](N)Cc1ccc(O)cc1)C(=O)NCC(=O)N(C)[C@@H](Cc1ccccc1)C(=O)NCCO`, the results for the Stimulation (in [14]; on Mu-type opioid receptor [4]) were 62% and 100%, respectively.

Regarding `CN1CC[C@]23c4c5ccc(O)c4O[C@H]2c2[nH]c4ccccc4c2C[C@@]3(CCCc2ccccc2)C1C5`, the figures for the Stimulation (in [14]; at Mu-type opioid receptor [4]; in assay [5]) were 67%, 91% and 65%, respectively. The results for the EC50 (on Mu-type opioid receptor [1]; in [3]; in assay [12]) were 21.5 nM, 7.53 nM and 96.5 nM, respectively. The values for the Ki (in [2]; at Mu-type opioid receptor [6]; in [8]) were 23.6 nM, 4.91 nM and 63.3 nM, respectively. In addition, the figures for the Selectivity in assay [9] and in assay [10] were 2.7 and 0.2, respectively.

With `CN1CC[C@]23c4c5ccc(O)c4O[C@H]2c2[nH]c4ccccc4c2C[C@@]3(N)C1C5`, the results for the 50% effective concentration (EC50) (at Mu-type opioid receptor [1]; in assay [3]) were above 1000 nM and 8.6 nM, respectively. Further, the results for the Ki (in assay [2]; at Mu-type opioid receptor [6]; in [8]) were 2.88 nM, 1050 nM and 399 nM, respectively. Moreover, the Stimulation in assay [5] was 38%. Moreover, the Activity entry in assay [7] was “Antagonist”. Also, the Selectivity in assay [10] stood at 365.

With `CN1CC[C@]23c4c5ccc(O)c4O[C@H]2c2[nH]c4ccccc4c2C[C@@]3(NCCCc2ccccc2)C1C5`, the values for the Stimulation (in assay [14]; at Mu-type opioid receptor [13]; in [5]) were 65%, 50% and 37%, respectively. Moreover, the half-maximal effective concentration (EC50) on Mu-type opioid receptor [1] came out at 45.1 nM; in [3], 0.87 nM; in assay [12], 27.2 nM. Also, the inhibitory constant (Ki) in assay [2] was determined as 1.95 nM; on Mu-type opioid receptor [6], 10.2 nM; in assay [8] it was 7.79 nM. The figures for the Selectivity in assay [9] and in assay [10] were 4 and 5, respectively.

For `CN1CC[C@]23c4c5ccc(O)c4O[C@H]2c2[nH]c4ccccc4c2C[C@@]3(NCCc2ccccc2)C1C5`, the Stimulation in [14] turned out to be 74%; at Mu-type opioid receptor [4] it was 93%; in assay [5] it was 33%. Besides, the EC50 came out at 5.33 nM at Mu-type opioid receptor [1], 0.95 nM in assay [3] and 16.4 nM in assay [12]. For the same compound, the inhibition constant Ki turned out to be 1.1 nM in assay [2], 1.68 nM at Mu-type opioid receptor [6] and 13.8 nM in assay [8]. Besides, the Selectivity in [9] turned out to be 13; in assay [10] it was 1.5.

The record behind these values is ChEMBL document CHEMBL1144921, “14-amino, 14-alkylamino, and 14-acylamino analogs of oxymorphindole. Differential effects on opioid receptor binding and functional profiles” (J Med Chem, 2003).
